From ChEMBL document CHEMBL1137357, “Further synthetic and biological studies on vitamin D hormone antagonists based on C24-alkylation and C2alpha-functionalization of 25-dehydro-1alpha-hydroxyvitamin D(3)-26,23-lactones” (J Med Chem, 2006)

Molecular target: T1, Vitamin D3 receptor (Homo sapiens) (UniProt P11473)
T1 sequence (whole entry): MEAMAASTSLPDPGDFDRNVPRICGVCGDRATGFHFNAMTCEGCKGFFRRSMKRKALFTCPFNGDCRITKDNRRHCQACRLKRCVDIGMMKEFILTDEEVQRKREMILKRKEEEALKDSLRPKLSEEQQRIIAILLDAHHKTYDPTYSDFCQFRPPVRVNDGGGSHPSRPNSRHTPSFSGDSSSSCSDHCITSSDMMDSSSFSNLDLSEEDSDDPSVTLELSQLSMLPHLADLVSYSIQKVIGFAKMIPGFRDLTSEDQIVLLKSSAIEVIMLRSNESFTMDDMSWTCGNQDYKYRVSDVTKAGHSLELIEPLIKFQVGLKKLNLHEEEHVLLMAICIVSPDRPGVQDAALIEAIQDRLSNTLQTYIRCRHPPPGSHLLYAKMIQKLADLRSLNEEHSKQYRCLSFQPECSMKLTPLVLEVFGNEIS
Experiment: Antagonist activity against 1-alpha,25-dihydroxy vitamin D3-induced HL60 cell differentiation by NBT reduction method relative to TEI-9647
Type: functional, cell-based
Set-up: scale not given: the % may be the effect or the level left
Conditions: HL-60

| Activity | SMILES |
| --- | --- |
| 1% | C=C1/C(=C\C=C2/CCC[C@]3(C)[C@@H]([C@H](C)C[C@H]4OC(=O)C(=C)[C@@H]4CCCC)CC[C@@H]23)C[C@@H](O)[C@H](C)[C@@H]1O |
| 74% | C=C1/C(=C\C=C2/CCC[C@]3(C)[C@@H]([C@H](C)C[C@H]4OC(=O)C(=C)[C@H]4CC)CC[C@@H]23)C[C@@H](O)[C@H](C)[C@@H]1O |
| 25% | C=C1/C(=C\C=C2/CCC[C@]3(C)[C@@H]([C@H](C)C[C@H]4OC(=O)C(=C)[C@H]4CC(C)C)CC[C@@H]23)C[C@@H](O)[C@H](OCCCO)[C@@H]1O |
| 7% | C=C1C[C@@H](C[C@@H](C)[C@H]2CC[C@H]3/C(=C/C=C4/C[C@@H](O)C[C@H](O)C4=C)CCC[C@]23C)OC1=O |
| 989% | C=C1/C(=C\C=C2/CCC[C@]3(C)[C@@H]([C@H](C)C[C@@H]4OC(=O)C(=C)[C@@H]4CC(C)C)CC[C@@H]23)C[C@@H](O)[C@H](CCCO)[C@@H]1O |
| 50% | C=C1/C(=C\C=C2/CCC[C@]3(C)[C@@H]([C@H](C)C[C@H]4OC(=O)C(=C)[C@H]4CC(C)C)CC[C@@H]23)C[C@@H](O)[C@H](C)[C@@H]1O |
| 1510% | C=C1C(=O)O[C@@H](C[C@@H](C)[C@H]2CC[C@H]3/C(=C/C=C4/C[C@@H](O)[C@H](CCCO)[C@H](O)C4=C)CCC[C@]23C)[C@@H]1C |
| 229% | C=C1/C(=C\C=C2/CCC[C@]3(C)[C@@H]([C@H](C)C[C@@H]4OC(=O)C(=C)[C@H]4CC(C)C)CC[C@@H]23)C[C@@H](O)[C@H](C)[C@@H]1O |
| 8% | C=C1/C(=C\C=C2/CCC[C@]3(C)[C@@H]([C@H](C)C[C@H]4OC(=O)C(=C)[C@@H]4CCC)CC[C@@H]23)C[C@@H](O)C[C@@H]1O |
| 205% | C=C1/C(=C\C=C2/CCC[C@]3(C)[C@@H]([C@H](C)C[C@@H]4OC(=O)C(=C)[C@H]4CCCC)CC[C@@H]23)C[C@@H](O)[C@H](OCCCO)[C@@H]1O |
| 32% | C=C1/C(=C\C=C2/CCC[C@]3(C)[C@@H]([C@H](C)C[C@H]4OC(=O)C(=C)[C@@H]4CC(C)C)CC[C@@H]23)C[C@@H](O)[C@H](CCCO)[C@@H]1O |
| 248% | C=C1/C(=C\C=C2/CCC[C@]3(C)[C@@H]([C@H](C)C[C@@H]4OC(=O)C(=C)[C@H]4CC)CC[C@@H]23)C[C@@H](O)[C@H](C)[C@@H]1O |
| 97% | C=C1/C(=C\C=C2/CCC[C@]3(C)[C@@H]([C@H](C)C[C@H]4OC(=O)C(=C)[C@H]4CCC)CC[C@@H]23)C[C@@H](O)[C@H](OCCCO)[C@@H]1O |
| 85100% | C=C1/C(=C\C=C2/CCC[C@]3(C)[C@@H]([C@H](C)C[C@@H]4OC(=O)C(=C)[C@@H]4CCC)CC[C@@H]23)C[C@@H](O)[C@H](OCCCO)[C@@H]1O |
| 46% | C=C1/C(=C\C=C2/CCC[C@]3(C)[C@@H]([C@H](C)C[C@H]4OC(=O)C(=C)[C@H]4CCCC)CC[C@@H]23)C[C@@H](O)[C@H](CCCO)[C@@H]1O |
| 3750% | C=C1/C(=C\C=C2/CCC[C@]3(C)[C@@H]([C@H](C)C[C@@H]4OC(=O)C(=C)[C@@H]4C)CC[C@@H]23)C[C@@H](O)[C@H](C)[C@@H]1O |
| 27% | C=C1/C(=C\C=C2/CCC[C@]3(C)[C@@H]([C@H](C)C[C@H]4OC(=O)C(=C)[C@H]4CC)CC[C@@H]23)C[C@@H](O)[C@H](OCCCO)[C@@H]1O |
| 18% | C=C1C(=O)O[C@H](C[C@@H](C)[C@H]2CC[C@H]3/C(=C/C=C4/C[C@@H](O)C[C@H](O)C4=C)CCC[C@]23C)[C@@H]1C |
| 1660% | C=C1/C(=C\C=C2/CCC[C@]3(C)[C@@H]([C@H](C)C[C@@H]4OC(=O)C(=C)[C@@H]4CCCC)CC[C@@H]23)C[C@@H](O)[C@H](OCCCO)[C@@H]1O |
| 284% | C=C1/C(=C\C=C2/CCC[C@]3(C)[C@@H]([C@H](C)C[C@@H]4OC(=O)C(=C)C45CC5)CC[C@@H]23)C[C@@H](O)C[C@@H]1O |
| 1160% | C=C1C[C@H](C[C@@H](C)[C@H]2CC[C@H]3/C(=C/C=C4/C[C@@H](O)[C@H](OCCCO)[C@H](O)C4=C)CCC[C@]23C)OC1=O |
| 1540% | C=C1/C(=C\C=C2/CCC[C@]3(C)[C@@H]([C@H](C)C[C@@H]4OC(=O)C(=C)[C@@H]4CCC)CC[C@@H]23)C[C@@H](O)[C@H](C)[C@@H]1O |
| 913% | C=C1/C(=C\C=C2/CCC[C@]3(C)[C@@H]([C@H](C)C[C@@H]4OC(=O)C(=C)[C@H]4CCC)CC[C@@H]23)C[C@@H](O)[C@H](CCCO)[C@@H]1O |
| 18% | C=C1/C(=C\C=C2/CCC[C@]3(C)[C@@H]([C@H](C)C[C@H]4OC(=O)C(=C)[C@H]4CC)CC[C@@H]23)C[C@@H](O)[C@H](CCCO)[C@@H]1O |
| 6190% | C=C1C(=O)O[C@@H](C[C@@H](C)[C@H]2CC[C@H]3/C(=C/C=C4/C[C@@H](O)[C@H](C)[C@H](O)C4=C)CCC[C@]23C)[C@@H]1C |
| 866% | C=C1/C(=C\C=C2/CCC[C@]3(C)[C@@H]([C@H](C)C[C@@H]4OC(=O)C(=C)[C@H]4CC)CC[C@@H]23)C[C@@H](O)[C@H](CCCO)[C@@H]1O |

| Activity | SMILES |
| --- | --- |
| 37% | C=C1/C(=C\C=C2/CCC[C@]3(C)[C@@H]([C@H](C)C[C@H]4OC(=O)C(=C)[C@H]4CCCC)CC[C@@H]23)C[C@@H](O)[C@H](OCCCO)[C@@H]1O |
| 5% | C=C1/C(=C\C=C2/CCC[C@]3(C)[C@@H]([C@H](C)C[C@H]4OC(=O)C(=C)[C@@H]4CC(C)C)CC[C@@H]23)C[C@@H](O)C[C@@H]1O |
| 4% | C=C1/C(=C\C=C2/CCC[C@]3(C)[C@@H]([C@H](C)C[C@H]4OC(=O)C(=C)[C@@H]4CCCC)CC[C@@H]23)C[C@@H](O)C[C@@H]1O |
| 30% | C=C1C(=O)O[C@H](C[C@@H](C)[C@H]2CC[C@H]3/C(=C/C=C4/C[C@@H](O)[C@H](CCCO)[C@H](O)C4=C)CCC[C@]23C)[C@@H]1C |
| 18% | C=C1/C(=C\C=C2/CCC[C@]3(C)[C@@H]([C@H](C)C[C@H]4OC(=O)C(=C)[C@@H]4CC)CC[C@@H]23)C[C@@H](O)[C@H](C)[C@@H]1O |
| 1170% | C=C1/C(=C\C=C2/CCC[C@]3(C)[C@@H]([C@H](C)C[C@@H]4OC(=O)C(=C)C4(C)C)CC[C@@H]23)C[C@@H](O)C[C@@H]1O |
| 70% | C=C1C(=O)O[C@@H](C[C@@H](C)[C@H]2CC[C@H]3/C(=C/C=C4/C[C@@H](O)C[C@H](O)C4=C)CCC[C@]23C)[C@@H]1CC |
| 88% | C=C1/C(=C\C=C2/CCC[C@]3(C)[C@@H]([C@H](C)C[C@H]4OC(=O)C(=C)[C@@H]4CCCC)CC[C@@H]23)C[C@@H](O)[C@H](OCCCO)[C@@H]1O |
| 38% | C=C1C[C@@H](C[C@@H](C)[C@H]2CC[C@H]3/C(=C/C=C4/C[C@@H](O)[C@H](C)[C@H](O)C4=C)CCC[C@]23C)OC1=O |
| 31% | C=C1/C(=C\C=C2/CCC[C@]3(C)[C@@H]([C@H](C)C[C@H]4OC(=O)C(=C)[C@H]4CC(C)C)CC[C@@H]23)C[C@@H](O)[C@H](CCCO)[C@@H]1O |
| 13% | C=C1C(=O)O[C@H](C[C@@H](C)[C@H]2CC[C@H]3/C(=C/C=C4/C[C@@H](O)C[C@H](O)C4=C)CCC[C@]23C)[C@@H]1CC |
| < 0.3% | C=C1/C(=C\C=C2/CCC[C@]3(C)[C@@H]([C@H](C)C[C@H]4OC(=O)C(=C)C45CC5)CC[C@@H]23)C[C@@H](O)C[C@@H]1O |
| 9% | C=C1C(=O)O[C@H](C[C@@H](C)[C@H]2CC[C@H]3/C(=C/C=C4/C[C@@H](O)C[C@H](O)C4=C)CCC[C@]23C)[C@@H]1CC(C)C |
| 117% | C=C1/C(=C\C=C2/CCC[C@]3(C)[C@@H]([C@H](C)C[C@H]4OC(=O)C(=C)[C@H]4CCC)CC[C@@H]23)C[C@@H](O)[C@H](CCCO)[C@@H]1O |
| 345% | C=C1/C(=C\C=C2/CCC[C@]3(C)[C@@H]([C@H](C)C[C@@H]4OC(=O)C(=C)[C@@H]4CC)CC[C@@H]23)C[C@@H](O)C[C@@H]1O |
| 60% | C=C1C(=O)O[C@@H](C[C@@H](C)[C@H]2CC[C@H]3/C(=C/C=C4/C[C@@H](O)C[C@H](O)C4=C)CCC[C@]23C)[C@@H]1CCC |
| 388% | C=C1/C(=C\C=C2/CCC[C@]3(C)[C@@H]([C@H](C)C[C@@H]4OC(=O)C(=C)[C@H]4CC(C)C)CC[C@@H]23)C[C@@H](O)[C@H](CCCO)[C@@H]1O |
| 86% | C=C1/C(=C\C=C2/CCC[C@]3(C)[C@@H]([C@H](C)C[C@@H]4OC(=O)C(=C)[C@@H]4CCC)CC[C@@H]23)C[C@@H](O)C[C@@H]1O |
| 2030% | C=C1/C(=C\C=C2/CCC[C@]3(C)[C@@H]([C@H](C)C[C@@H]4OC(=O)C(=C)[C@H]4CCC)CC[C@@H]23)C[C@@H](O)[C@H](C)[C@@H]1O |
| 3440% | C=C1/C(=C\C=C2/CCC[C@]3(C)[C@@H]([C@H](C)C[C@@H]4OC(=O)C(=C)[C@@H]4CC(C)C)CC[C@@H]23)C[C@@H](O)[C@H](OCCCO)[C@@H]1O |
| 42% | C=C1/C(=C\C=C2/CCC[C@]3(C)[C@@H]([C@H](C)C[C@H]4OC(=O)C(=C)[C@@H]4CC(C)C)CC[C@@H]23)C[C@@H](O)[C@H](OCCCO)[C@@H]1O |
| 17% | C=C1C(=O)O[C@H](C[C@@H](C)[C@H]2CC[C@H]3/C(=C/C=C4/C[C@@H](O)C[C@H](O)C4=C)CCC[C@]23C)[C@@H]1CCCC |
| 174% | C=C1/C(=C\C=C2/CCC[C@]3(C)[C@@H]([C@H](C)C[C@@H]4OC(=O)C(=C)[C@@H]4CC(C)C)CC[C@@H]23)C[C@@H](O)C[C@@H]1O |
| 2910% | C=C1/C(=C\C=C2/CCC[C@]3(C)[C@@H]([C@H](C)C[C@@H]4OC(=O)C(=C)[C@@H]4CCCC)CC[C@@H]23)C[C@@H](O)[C@H](C)[C@@H]1O |
| 122% | C=C1/C(=C\C=C2/CCC[C@]3(C)[C@@H]([C@H](C)C[C@@H]4OC(=O)C(=C)[C@H]4CCCC)CC[C@@H]23)C[C@@H](O)[C@H](CCCO)[C@@H]1O |
| 100% | C=C1C[C@@H](C[C@@H](C)[C@H]2CC[C@H]3/C(=C/C=C4/C[C@@H](O)[C@H](CCCO)[C@H](O)C4=C)CCC[C@]23C)OC1=O |
